In test [1] the test system is participants with center-involved diabetic macular edema (CI-DME). In words: Randomized clinical trial of oral lamivudine versus placebo in DME: ETDRS best-corrected visual-acuity letter score (VALS). The format is in vivo, human. The protocol:
A single center randomized clinical trial was conducted at a tertiary center in São Paulo, Brazil in accordance with the provisions of the Declaration of Helsinki and Good Clinical Practice guidelines. The study was approved by the local institutional review board and study participants provided written informed consent. This study was registered in the Brazilian Registry of Clinical Trials (ReBEC) under the number RBR-87b6r5s. Latinofarma (Brazil) provided the lamivudine and placebo at no cost and also provided funding for bevacizumab which was repackaged in single-used vials by Citopharma (Brazil).
Participants were excluded if they had high-risk proliferative diabetic retinopathy, received any intravitreous injection or laser photocoagulation within the previous 6 months, positive serology for human immunodeficiency virus or hepatitis B virus, or an estimated glomerular rate filtration below 40 mL/min/1.73 m^2 determined with the use of the Cockcroft-Gault equation.
Randomization was performed at the sealed envelope website (https://sealedenvelope.com), in permuted blocks and with stratification according to visual acuity in the study eye. One physician who was not involved with patient assessment was responsible for the randomization and vial delivery to the patients. The study participants, assessing physicians, and OCT technicians were unaware of the treatment group assignment at all visits.
Placebo vials were provided by the same pharmaceutical company responsible for lamivudine production using the same vehicle. The vials were concealed and delivered to the study center. […] At the 4-week visit, participants were administered an intravitreous injection of bevacizumab (1.25 mg in an injection volume of 0.05 ml) in eyes with CI-DME if the best-corrected visual-acuity letter score (VALS) was less than 69 and the retinal central subfield thickness was 325 μm or more. Injection of bevacizumab was performed by the same physician following topical anesthesia, installation of a sterile lid speculum, and application of povidone-iodine drops. No antibiotic was administered after the procedure.
Visual acuity assessment was performed by two certified assessing physicians. The same participant could be assessed by a different physician on each visit. The exam was performed using a back-illuminated 4-meter Early Treatment Diabetic Retinopathy Study (ETDRS) chart. Different ETDRS charts were used to refine the refraction and to assess the right and left eye at each visit. If fewer than 20 letters were correctly identified at 4 meters, testing was also performed at 1 meter adding+0.75 sphere. The refraction was performed without pupil dilation, in the same exam room with a standardized background illumination.
The principal analysis compared lamivudine to placebo. Change in mean VALS from baseline was the primary outcome of interest. We sought to detect a difference of 6 letters in the VALS between groups. This effect size was chosen for power analyses because this change corresponds to a difference of more than 1 line on the ETDRS or Snellen eye charts, the minimal increase in visual acuity judged to be clinically meaningful. By estimating the standard deviation to be 6 letters, we calculated that 16 eyes in each group would provide the trial with 80% power (at a 5% two-sided alpha level) to detect this difference.
To analyze the change in VALS from baseline, a mixed-effects model was employed. Random effects were included in the model to account for subject-specific variability. […] The model's estimates, confidence intervals (CI), and P values were reported for each predictor.
The exams took place at the beginning of the treatment and after 4 weeks of using the medication. At the 4-week return, […] were administered an intravitreous injection of Avastin, one of the standard anti-VEGF treatments for DME. Four weeks after the injection (8 weeks from the start of the study) participants underwent another eye examination. […]

Test [2] has as its system photoreceptors (TUNEL+ cells in the ONL). Put plainly: RRD model: TUNEL assay of the retinal outer nuclear layer. The format is in vivo, mouse. The settings on record: day 3 RRD, equimolar IP doses twice daily (K-9H 60 mg/kg, 3TC 50 mg/kg). The protocol: All experiments involving animals were approved by the University of Virginia Institutional Animal Care and Use Committee (IACUC) and adhered to the Association for Research in Vision and Ophthalmology (ARVO) Statement for the Use of Animals in Ophthalmic and Vision Research. Animal subjects were male and female mice aged 6 to 10 weeks. Wild type C57BL/6J mice were obtained from the Jackson Laboratory (Bar Harbor, ME, USA). To anesthetize mice for study procedures, ketamine hydrochloride (100 mg/kg; Ft. Dodge Animal Health, Overland Park, KS, USA) and xylazine (10 mg/kg; Phoenix Scientific, St. Joseph, MO, USA) were delivered by intraperitoneal (IP) injection. Pupils were dilated with topical 1% tropicamide and 2.5% phenylephrine (Alcon Laboratories, Ft. Worth, TX, USA).
RRD model was established by subretinal injection (SRI) of 3 μl 1% carboxymethyl cellulose (CMC; Refresh Liquigel, Allergan, Irvine, CA, USA).
NRTIs and K-9 were delivered via intraperitoneal (IP) injection in equimolar amounts. […] Kamuvudine K-9 (3-methyl-3TC, MW=273 g/mol) was administered either at a low dose (K-9L; 90 mg/kg daily) or a high dose (K-9H; 60 mg/kg twice daily, equimolar to NRTI doses). IP injection of phosphate buffered saline (PBS) was used as control.
Retinal cross cryosections at a thickness of 10 μm were stained with TUNEL (TdT-mediated dUTP nick-end labeling) using the In Situ Cell Death Detection Kit (Roche Diagnostics, Indianapolis, IN, USA) according to the manufacturer's′ instructions. The sections were wet-mounted with ProLong anti-fade reagent with DAPI (P36935, ThermoFisher Scientific, Waltham, MA, USA) and visualized using an A1R laser confocal microscope (Nikon, Tokyo, Japan). Fourteen representative sections, including the optic nerve, were used per treatment group. To calculate the number of TUNEL+ cells in the outer nuclear layer (ONL), the retina analysis toolkit of ImageJ (2.1.0; NIH, Bethesda, MD, USA) was used.

As for `Nc1ccn([C@@H]2CS[C@H](CO)O2)c(=O)n1` [Lamivudine], in test [1] (Table 4, weeks 4 and 8), the “Mixed model: change in visual acuity from baseline, Treatment (Lamivudine vs. Placebo), estimate” value was 11.86. In addition, the entries for the “Model-based contrast: change in visual acuity, Lamivudine - Placebo” value in test [1] (change from baseline to week 4) and in test [1] (change from baseline to week 8) were 11.86 and 18.99, respectively. Also, the “percentage of eyes with improvement in VALS of 15 or more” value is given as 38% in test [1] (week 4, oral lamivudine) and 56% in test [1] (week 8, oral lamivudine plus intravitreous bevacizumab at week 4). In addition, in test [1] (week 4, oral lamivudine 150 mg twice daily, before intravitreous bevacizumab), the “mean change in VALS from baseline” value was found to be 9.8 letters. Moreover, the “mean improvement in VALS from baseline” value in test [1] (week 8, oral lamivudine plus intravitreous bevacizumab 1.25 mg at week 4) is on record as 16.9 letters. The “degree of photoreceptor protection” value in test [2] is recorded as 38%+10%.

Source of the values: patent US20260191861A1, “INFLAMMASOME AND VEGF INHIBITION FOR RETINAL VASCULAR DISEASES” (University of Virginia Patent Foundation, priority 2022, published 2026).
